Results on five substances are retold here after patent US8440628B2, “Medical compositions containing ghrelin” (Daiichi Sankyo Company, Limited, priority 2002, dated 2013).

The conditions of data set [1]: compared with human ghrelin; cited from earlier work.
Data set [2] can be described thus: Stability of human ghrelin(1-7)amide in pH-adjusted purified water at 25°C (Example 8). The class given is physicochemical. The settings on record: for Peak area ratio to total peak area: 25±2°C. The procedure: Human ghrelin(1-7)amide was dissolved in the purified water with about 0.12 μmol/mL (0.1 mg/mL). The pH of this solution was 5.0. This solution was divided into quarter, and one portion was kept alone and the pH values of the remaining three portions were adjusted to pH 1.8 (with 17 mM of hydrochloric acid), pH 4.1 (with 0.05 mM of hydrochloric acid) and pH 7.9 (with 0.20 mM of sodium hydroxide) respectively, by adding with hydrochloric acid or sodium hydroxide aqueous solution.
These four solutions were stored at 25±2° C. for 1 and 3 day, and after storage, the HPLC analyses of each solutions were conducted to calculate the peak area ratio of human ghrelin(1-7)amide, desacyl human ghrelin(1-7)amide and [3-dehydroalanine]-human ghrelin(1-7)amide to the total peak area.

Data set [3] in a line: Adsorption inhibiting effect of anti-adsorbents on human ghrelin in glass and polypropylene test tubes (Example 9). It counts as physicochemical. The settings on record: for Adsorption inhibiting effect: added at 0.01% or 0.1% to human ghrelin 1.0 μg/mL solution; for Human ghrelin concentration of the solution (Initial Conc. = 100): human ghrelin 1.0 μg/mL in 5% mannitol-0.05M glycine hydrochloride buffer (pH 3.5). Here is the method: As the anti-adsorbent, the surfactant, that is, polyoxyethylene sorbitan monooleate (hereinafter, referred to as Tween® 80), and benzalkonium chloride were selected.
The anti-adsorbent was added to this solution with 0.01% or 0.1% concentration.
The human ghrelin concentrations of each solution were measured by HPLC method right after preparation, and these solutions were replaced in glass test tubes. After that, each solution were further replaced in new glass test tubes, and same operation was repeated for 5 and 10 times, then, the human ghrelin concentrations of each treated solution were measured by HPLC method. As a control, the solution not containing anti-adsorbent was examined.
Same procedure was repeated by using test tube made by polypropylene instead of glass test tube.

The mark [4] stands for this setting: human ghrelin(1-7)amide 0.1 mg/mL in purified water adjusted to pH 1.8 with hydrochloric acid, 1 day after.
Where [5] appears, read: human ghrelin(1-7)amide 0.1 mg/mL in purified water adjusted to pH 1.8 with hydrochloric acid, 3 days after.
[6] abbreviates: human ghrelin(1-7)amide 0.1 mg/mL in purified water adjusted to pH 1.8 with hydrochloric acid, before storage.
The mark [7] stands for this setting: human ghrelin(1-7)amide 0.1 mg/mL in purified water adjusted to pH 4.1 with hydrochloric acid, 1 day after.
Where [8] appears, read: human ghrelin(1-7)amide 0.1 mg/mL in purified water adjusted to pH 4.1 with hydrochloric acid, 3 days after.
Setting [9] is: human ghrelin(1-7)amide 0.1 mg/mL in purified water adjusted to pH 4.1 with hydrochloric acid, before storage.
[10] abbreviates: human ghrelin(1-7)amide 0.1 mg/mL in purified water adjusted to pH 7.9 with sodium hydroxide, 1 day after.
Where [11] appears, read: human ghrelin(1-7)amide 0.1 mg/mL in purified water adjusted to pH 7.9 with sodium hydroxide, 3 days after.
The mark [12] stands for this setting: human ghrelin(1-7)amide 0.1 mg/mL in purified water adjusted to pH 7.9 with sodium hydroxide, before storage.
The mark [13] stands for this setting: human ghrelin(1-7)amide 0.1 mg/mL in purified water, pH 5.0 (not adjusted), 1 day after.
Where [14] appears, read: human ghrelin(1-7)amide 0.1 mg/mL in purified water, pH 5.0 (not adjusted), 3 days after.
Where [15] appears, read: human ghrelin(1-7)amide 0.1 mg/mL in purified water, pH 5.0 (not adjusted), before storage.
[16] abbreviates: anti-adsorbent 0.01%, Glass tube, replaced 5 times.
The mark [17] stands for this setting: anti-adsorbent 0.01%, Glass tube, replaced 10 times.
Setting [18] is: anti-adsorbent 0.01%, Initial Conc.
Setting [19] is: anti-adsorbent 0.01%, Polypropylene tube, replaced 5 times.
[20] abbreviates: anti-adsorbent 0.01%, Polypropylene tube, replaced 10 times.
The mark [21] stands for this setting: anti-adsorbent 0.1%, Glass tube, replaced 5 times.
Setting [22] is: anti-adsorbent 0.1%, Glass tube, replaced 10 times.
[23] abbreviates: anti-adsorbent 0.1%, Initial Conc.
Setting [24] is: anti-adsorbent 0.1%, Polypropylene tube, replaced 5 times.
Where [25] appears, read: anti-adsorbent 0.1%, Polypropylene tube, replaced 10 times.

In the case of Human ghrelin(1-7)amide, the Biological activity result in data set [1] is on record as “same biological activity as human ghrelin”. Further, in data set [2] (aqueous solution of pH 4.1 and 5.0, 25±2°C, up to 3 days), the “Production of the degradation products” value is “inhibited”. Further, the “Peak area ratio to total peak area” value in data set [2] (setting [4]) is 95.40%; in data set [2] (human ghrelin(1-7)amide 0.1 mg/mL in purified water adjusted to pH 1.8 with hydrochloric acid, 1 day after, listed as human ghrelin(1-7)amide) it was “less than 98%”; in data set [2] (setting [5]) it was 90.11%; in data set [2] (setting [6]) it was 98.39%; in data set [2] (setting [7]) it was 98.68%; in data set [2] (setting [8]), 98.60%. The “Peak area ratio to total peak area” value is given as 98.76% in data set [2] (setting [9]); 95.89% in data set [2] (setting [10]); “less than 98%” in data set [2] (human ghrelin(1-7)amide 0.1 mg/mL in purified water adjusted to pH 7.9 with sodium hydroxide, 1 day after, listed as human ghrelin(1-7)amide); 92.54% in data set [2] (setting [11]); 98.22% in data set [2] (setting [12]); 98.57% in data set [2] (setting [13]). Further, the “Peak area ratio to total peak area” value was found to be 98.51% in data set [2] (setting [14]) and 98.69% in data set [2] (setting [15]). For the same substance, in data set [2] (human ghrelin(1-7)amide dissolved in purified water, about 0.12 μmol/mL (0.1 mg/mL)), the “pH of the solution” value was determined as 5.0.
As to desacyl human ghrelin(1-7)amide, the “Peak area ratio to total peak area” value in data set [2] (setting [4]) was found to be 3.75%; in data set [2] (setting [5]), 8.89%; in data set [2] (setting [6]) it was 0.98%; in data set [2] (setting [7]) it was 0.73%; in data set [2] (setting [8]) it was 0.77%; in data set [2] (setting [9]), 0.72%. The “Peak area ratio to total peak area” value in data set [2] (setting [10]) amounted to 3.21%; in data set [2] (setting [11]) it was 6.21%; in data set [2] (setting [12]), 1.12%; in data set [2] (setting [13]), 0.73%; in data set [2] (setting [14]), 0.79%; in data set [2] (setting [15]) it was 0.70%.
Consider “[3-dehydroalanine]-human ghrelin(1-7)amide”, for which the “Peak area ratio to total peak area” value was found to be 0.07% in data set [2] (setting [4]); 0.10% in data set [2] (setting [5]); 0.02% in data set [2] (setting [6]); 0.03% in data set [2] (setting [7]); 0.01% in data set [2] (setting [8]); 0.00% in data set [2] (setting [9]). For the same substance, the “Peak area ratio to total peak area” value in data set [2] (setting [10]) was determined as 0.23%; in data set [2] (setting [11]), 0.54%; in data set [2] (setting [12]) it was 0.03%; in data set [2] (setting [13]), 0.02%; in data set [2] (setting [14]) it was 0.06%; in data set [2] (setting [15]) it was 0.00%.
As for “polyoxyethylene sorbitan monooleate [Tween 80]”, the Adsorption inhibiting effect entry in data set [3] is listed as “high adsorption inhibiting effect against polypropylene tube”. In addition, the “Human ghrelin concentration of the solution (Initial Conc. = 100)” value (from here on “Human ghrelin concentration”) in data set [3] (setting [16]) stood at 17; in data set [3] (setting [17]), 0; in data set [3] (setting [18]) it was 100; in data set [3] (setting [19]), 90; in data set [3] (setting [20]), 90; in data set [3] (setting [21]), 20. Also, the “Human ghrelin concentration” value is on record as 5 in data set [3] (setting [22]), 100 in data set [3] (setting [23]), 93 in data set [3] (setting [24]) and 91 in data set [3] (setting [25]).
Regarding benzalkonium chloride, the Adsorption inhibiting effect entry in data set [3] was “high adsorption inhibiting effect against both glass tube and polypropylene tube”. Besides, the “Human ghrelin concentration” value in data set [3] (setting [16]) worked out at 81; in data set [3] (setting [17]), 64; in data set [3] (setting [18]), 100; in data set [3] (setting [19]), 97; in data set [3] (setting [20]) it was 96; in data set [3] (setting [21]) it was 99. Further, the “Human ghrelin concentration” value in data set [3] (setting [22]) was found to be 99; in data set [3] (setting [23]), 100; in data set [3] (setting [24]), 99; in data set [3] (setting [25]) it was 101.
